Test results published in patent US20220127247A1, “N-(PYRIDIN-2-YL)PYRIDINE-SULFONAMIDE DERIVATIVES AND THEIR USE IN THE TREATMENT OF DISEASE” (NOVARTIS AG, priority 2019, published 2022).

Target: T1, delF508-CFTR (Homo sapiens, UniProt P13569, DEL508-508)
T1 construct: expressed in transfected cells
Experiment: Measurement of delF508-CFTR-HRP surface expression in CFBE41o- cells
Assay type: cell-based
Details: for EC50: HRP-tagged delF508-CFTR in CFBE41o- cells, 24 h with compound, luminescence, 10-point curve, top 10 μM; for Emax: efficacy relative to reference compound 3-(6-(1-(2,2-difluorobenzo[d][1,3]dioxol-5-yl)cyclopropane-1-carboxamido)-3-methylpyridin-2-yl)benzoic acid, CFBE41o- cells, 24 h, read-out: DelF508-CFTR-HRP Amax %
From the text: Measurement of delF508-CFTR-HRP Surface Expression in CFBE41o-Cells
This assay quantifies the cell surface expressions of the mutant CFTR channel using an extracellular HRP tag.
A cellular assay was developed to measure surface expression of horseradish peroxidase (HRP) tagged delF508-CFTR in the human bronchial epithelial immortalized CFBE41o-cell line (Phuan, P. W., et al, (2014) Molecular Pharmacology 86:42-51). Specifically, the HRP sequence was inserted into the fourth extracellular loop of delF508-CFTR and stably expressed in CFBE41o-cells. Cells were seeded in 384 well plate at a density of 5000 cells/well and incubated at 37° C. for 12 to 24 hours in medium (Gibco MEM #11095, 10% FBS, 10 mM HEPES, […], 200 μg/mL G418, 3 μg/mL Puromycin). The delF508-CFTR-HRP expression was induced with 500 ng/mL doxycycline (Sigma D-9891, dissolved in H2O and sterile filtered) in medium and the cells were incubated at 37° C. for 48 h. Old medium was removed and fresh medium was added containing 500 ng/mL doxycycline and unknown test compound at required test concentration in DMSO, not exceeding 0.5% final DMSO concentration. The highest concentration tested was 10 μM with a 10-point concentration response curve using a 3-fold dilution. After addition of compounds, the cells were incubated for 24 h at 37° C. On the final day, cells were washed four times in PBS containing 1 mM MgCl2 and 0.1 mM CaCl2. HRP-Substrate (SuperSignal ELISA Pico, Fisher #37069) 20 μl/well was added and the luminescence signal was determined (Viewlux, Perkin Elmer). Light was emitted upon addition of exogenous HRP-Substrate only when delF508-CFTR-HRP reached the cell surface and the HRP tag was accessible to the HRP-Substrate (note: HRP-Substrate cannot cross the lipid bilayer to reach delF508-CFTR-HRP misfolded within the cell).
The median activity for the lowest concentration of the compounds on each assay plate was calculated and this value was used to normalize the signal for each well on the respective plate. Three replicates at each concentrations for every compound were run to determine one EC50. The median value was determined and used to calculate compound activities as described below. Effective half maximal values (EC50) were calculated for each compound by performing logistic regression on measured dose-response data points using the equation: […]
where “Y” is the observed activity, “Bottom” is the lowest observed value, “Top” is the highest observed value, and the “Hill coefficient” gives the largest absolute value of the slope. The curve fitting is carried out by a curve fitting program implemented at GNF using Matlab (Mathworks).
The dose response curves also were used to calculate Fold Change (FC) using the equation: […]
Compound efficacy relative to the reference compound 3-(6-(1-(2,2-difluorobenzo[d][1,3]dioxol-5-yl)cyclopropane-1-carboxamido)-3-methylpyridin-2-yl)benzoic acid was determined using the following formula: […]

T1 sequence (P13569 with tags, fused parts or gaps DEL508-508): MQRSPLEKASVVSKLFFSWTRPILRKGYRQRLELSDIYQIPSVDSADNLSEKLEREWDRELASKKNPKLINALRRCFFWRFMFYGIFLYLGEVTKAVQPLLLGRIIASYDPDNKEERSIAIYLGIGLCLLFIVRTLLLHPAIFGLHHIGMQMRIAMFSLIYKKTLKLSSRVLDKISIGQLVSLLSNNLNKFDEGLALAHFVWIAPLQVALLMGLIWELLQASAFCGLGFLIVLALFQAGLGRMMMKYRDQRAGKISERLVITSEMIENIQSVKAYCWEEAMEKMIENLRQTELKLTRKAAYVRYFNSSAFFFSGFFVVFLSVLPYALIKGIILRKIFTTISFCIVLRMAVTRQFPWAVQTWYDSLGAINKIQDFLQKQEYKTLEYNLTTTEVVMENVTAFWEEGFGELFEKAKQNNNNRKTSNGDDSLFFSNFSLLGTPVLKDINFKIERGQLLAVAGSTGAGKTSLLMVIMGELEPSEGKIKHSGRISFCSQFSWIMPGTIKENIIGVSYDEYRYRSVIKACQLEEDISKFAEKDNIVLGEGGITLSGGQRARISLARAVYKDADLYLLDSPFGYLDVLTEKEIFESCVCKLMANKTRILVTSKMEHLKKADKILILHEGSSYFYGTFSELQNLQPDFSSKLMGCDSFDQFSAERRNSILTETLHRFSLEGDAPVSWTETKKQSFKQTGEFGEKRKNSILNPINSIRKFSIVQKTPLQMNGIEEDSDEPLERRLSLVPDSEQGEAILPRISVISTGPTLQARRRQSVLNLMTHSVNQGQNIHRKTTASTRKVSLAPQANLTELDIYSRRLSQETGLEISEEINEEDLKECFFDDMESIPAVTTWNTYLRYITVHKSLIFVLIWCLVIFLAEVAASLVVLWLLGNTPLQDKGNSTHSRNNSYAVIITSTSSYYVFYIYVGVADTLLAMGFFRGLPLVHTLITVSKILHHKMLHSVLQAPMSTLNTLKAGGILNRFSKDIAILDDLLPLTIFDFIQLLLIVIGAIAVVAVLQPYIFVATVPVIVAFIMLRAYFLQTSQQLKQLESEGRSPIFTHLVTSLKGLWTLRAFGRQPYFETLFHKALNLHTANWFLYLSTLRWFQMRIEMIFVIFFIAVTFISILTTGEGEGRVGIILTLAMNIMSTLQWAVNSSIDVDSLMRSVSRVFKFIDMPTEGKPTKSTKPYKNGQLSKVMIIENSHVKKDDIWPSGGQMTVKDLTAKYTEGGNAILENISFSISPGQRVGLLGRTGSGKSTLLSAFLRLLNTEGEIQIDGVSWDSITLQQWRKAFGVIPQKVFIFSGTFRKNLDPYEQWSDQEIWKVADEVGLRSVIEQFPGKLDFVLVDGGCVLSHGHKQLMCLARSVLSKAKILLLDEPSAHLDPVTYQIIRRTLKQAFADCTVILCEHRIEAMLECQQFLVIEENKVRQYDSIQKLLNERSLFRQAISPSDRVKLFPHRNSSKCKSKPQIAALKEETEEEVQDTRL

Row | EC50 [nM] | Emax [%] | Structure (SMILES)
1 | 1810 | 361 | Cc1ccccc1-c1nc(NS(=O)(=O)c2cccc(NC3CCCC(C(=O)O)C3)n2)ccc1C(F)(F)F (mixture of isomers) [Compound 105, 3-((6-(N-(6-(o-tolyl)-5-(trifluoromethyl)pyridin-2-yl)sulfamoyl)pyridin-2-yl)amino)cyclohexane-1-carboxylic Acid]
2 | 1950 | 392 | Cc1ccccc1-c1nc(NS(=O)(=O)c2cccc(N[C@@H]3CCC[C@H](C(=O)O)C3)n2)ccc1C(F)(F)F (racemic) [106a 106b (racemic mixture)]
3 | 2070 | 763 | Cc1ccccc1-c1nc(NS(=O)(=O)c2cccc(N[C@H]3[C@@H](C(=O)O)[C@H]4C=C[C@@H]3C4)n2)ccc1C(F)(F)F (racemic) [107a 107b (racemic mixture)]
4 | 2070 | 569 | Cc1ccccc1-c1nc(NS(=O)(=O)c2cccc(N[C@@H]3[C@H]4CC[C@H](C4)[C@@H]3C(=O)O)n2)ccc1C(F)(F)F (racemic) [108a 108b (racemic mixture)]
5 | 2320 | 700 | Cc1ccccc1-c1nc(NS(=O)(=O)c2cccc(N[C@@H]3[C@@H]4CC[C@@H](C4)[C@@H]3C(=O)O)n2)ccc1C(F)(F)F (racemic) [109a 109b (racemic mixture)]
6 | 1620 | 785 | Cc1ccccc1-c1nc(NS(=O)(=O)c2cccc(N3CCC[C@@](C)(CC(=O)O)C3)n2)ccc1C(F)(F)F (single isomer, unassigned) [Compound 122]
7 | 1610 |  | Cc1ccccc1-c1nc(NS(=O)(=O)c2cccc(N3CCC[C@](C)(CC(=O)O)C3)n2)ccc1C(F)(F)F (single isomer, unassigned) [Compound 123]
8 | 2150 | 291 | Cc1cccc(C)c1-c1nc(NS(=O)(=O)c2cccc(NCCC(=O)O)n2)ccc1Cl [Compound 1, 3-((6-(N-(5-chloro-6-(2,6-dimethylphenyl)pyridin-2-yl)sulfamoyl)pyridin-2-yl)amino)propanoic Acid]
9 | 2720 | 124 | Cc1cccc(C)c1-c1nc(NS(=O)(=O)c2ccnc(NCCC(=O)O)c2)ccc1Cl [Compound 2, 3-((4-(N-(5-chloro-6-(2,6-dimethylphenyl)pyridin-2-yl)sulfamoyl)pyridin-2-yl)amino)propanoic Acid]
10 | 2580 | 722 | Cc1cccc(C)c1-c1nc(NS(=O)(=O)c2cccc(NCCCC(=O)O)n2)ccc1Cl [Compound 3, 4-((6-(N-(5-chloro-6-(2,6-dimethylphenyl)pyridin-2-yl)sulfamoyl)pyridin-2-yl)amino)butanoic Acid]
11 | 2190 |  | Cc1cccc(C)c1-c1nc(NS(=O)(=O)c2cccc(NCCCCC(=O)O)n2)ccc1Cl [Compound 4, 5-((6-(N-(5-chloro-6-(2,6-dimethylphenyl)pyridin-2-yl)sulfamoyl)pyridin-2-yl)amino)pentanoic Acid]
12 | 2580 | 596 | Cc1cccc(C)c1-c1nc(NS(=O)(=O)c2cccc(N3CCC(CC(=O)O)CC3)n2)ccc1Cl [Compound 5, 2-(1-(6-(N-(5-chloro-6-(2,6-dimethylphenyl)pyridin-2-yl)sulfamoyl)pyridin-2-yl)piperidin-4-yl)acetic Acid]
13 | 1520 | 529 | Cc1ccc(F)cc1-c1nc(NS(=O)(=O)c2cccc(N3CCC(C)(CC(=O)O)CC3)n2)ccc1C(F)(F)F [Compound 6, 2-(1-(6-(N-(6-(5-fluoro-2-methylphenyl)-5-(trifluoromethyl)pyridin-2-yl)sulfamoyl)pyridin-2-yl)-4-methylpiperidin-4-yl)acetic Acid]
14 | 1880 | 363 | Cc1ccccc1-c1nc(NS(=O)(=O)c2cccc(N3CCC(C)(CC(=O)O)CC3)n2)ccc1C(F)(F)F [Compound 7, 2-(4-methyl-1-(6-(N-(6-(o-tolyl)-5-(trifluoromethyl)pyridin-2-yl)sulfamoyl)pyridin-2-yl)piperidin-4-yl)acetic Acid]
15 | 1850 | 271 | Cc1ccccc1-c1nc(NS(=O)(=O)c2cccc(NCC(C)(C)C(=O)O)n2)ccc1C(F)(F)F [Compound 8, 2,2-dimethyl-3-((6-(N-(6-(o-tolyl)-5-(trifluoromethyl)pyridin-2-yl)sulfamoyl)pyridin-2-yl)amino)propanoic Acid]
16 | 2020 | 102 | Cc1ccccc1-c1nc(NS(=O)(=O)c2cccc(N3CCC(O)(C(C)(C)C(=O)O)CC3)n2)ccc1C(F)(F)F [Compound 9, 2-(4-hydroxy-1-(6-(N-(6-(o-tolyl)-5-(trifluoromethyl)pyridin-2-yl)sulfamoyl)pyridin-2-yl)piperidin-4-yl)-2-methylpropanoic Acid]
17 | 910 | 266 | Cc1ccccc1-c1nc(NS(=O)(=O)c2cccc(N3CCC(C(C)(C)C(=O)O)CC3)n2)ccc1C(F)(F)F [Compound 10, 2-methyl-2-(1-(6-(N-(6-(o-tolyl)-5-(trifluoromethyl)pyridin-2-yl)sulfamoyl)pyridin-2-yl)piperidin-4-yl)propanoic Acid]
18 | 2250 | 415 | Cc1ccccc1-c1nc(NS(=O)(=O)c2cccc(NCC3(C(=O)O)CC3)n2)ccc1C(F)(F)F [Compound 11, 1-(((6-(N-(6-(o-tolyl)-5-(trifluoromethyl)pyridin-2-yl)sulfamoyl)pyridin-2-yl)amino)methyl)cyclopropane-1-carboxylic Acid]
19 | 2300 | 608 | Cc1ccccc1-c1nc(NS(=O)(=O)c2cccc(NCC3(C(=O)O)CCC3)n2)ccc1C(F)(F)F [Compound 12, 1-(((6-(N-(6-(o-tolyl)-5-(trifluoromethyl)pyridin-2-yl)sulfamoyl)pyridin-2-yl)amino)methyl)cyclobutane-1-carboxylic Acid]
20 | 2400 | 370 | Cc1c(F)cccc1-c1nc(NS(=O)(=O)c2cccc(N3CCC(C)(CC(=O)O)CC3)n2)ccc1C(F)(F)F [Compound 13, 2-(1-(6-(N-(6-(3-fluoro-2-methylphenyl)-5-(trifluoromethyl)pyridin-2-yl)sulfamoyl)pyridin-2-yl)-4-methylpiperidin-4-yl)acetic Acid]
21 | 2550 | 283 | Cc1ccccc1-c1nc(NS(=O)(=O)c2cccc(N3CCC(CC(=O)O)CC3)n2)ccc1C(F)(F)F [Compound 14, 2-(1-(6-(N-(6-(o-tolyl)-5-(trifluoromethyl)pyridin-2-yl)sulfamoyl)pyridin-2-yl)piperidin-4-yl)acetic Acid]
22 | 2140 | 397 | CCc1ccccc1-c1nc(NS(=O)(=O)c2cccc(N3CCC(CC(=O)O)CC3)n2)ccc1C(F)(F)F [Compound 15, 2-(1-(6-(N-(6-(2-ethylphenyl)-5-(trifluoromethyl)pyridin-2-yl)sulfamoyl)pyridin-2-yl)piperidin-4-yl)acetic Acid]
23 | 2010 | 495 | O=C(O)CC1CCN(c2cccc(S(=O)(=O)Nc3ccc(C(F)(F)F)c(-c4ccccc4-c4ccccc4)n3)n2)CC1 [Compound 16, 2-(1-(6-(N-(6-([1,1′-biphenyl]-2-yl)-5-(trifluoromethyl)pyridin-2-yl)sulfamoyl)pyridin-2-yl)piperidin-4-yl)acetic Acid]
24 | 1460 | 369 | O=C(O)CC1CCN(c2cccc(S(=O)(=O)Nc3ccc(C(F)(F)F)c(-c4ccccc4C4CCC4)n3)n2)CC1 [Compound 17, 2-(1-(6-(N-(6-(2-cyclobutylphenyl)-5-(trifluoromethyl)pyridin-2-yl)sulfamoyl)pyridin-2-yl)piperidin-4-yl)acetic Acid]
25 | 2390 | 97 | CC1(C(=O)O)CCN(c2cccc(S(=O)(=O)Nc3ccc(C(F)(F)F)c(-c4ccccc4-c4ncccn4)n3)n2)CC1 [Compound 18, 4-methyl-1-(6-(N-(6-(2-(pyrimidin-2-yl)phenyl)-5-(trifluoromethyl)pyridin-2-yl)sulfamoyl)pyridin-2-yl)piperidine-4-carboxylic Acid]
